Assay results published in patent publication US9884089B2, “BPI and its congeners as radiation mitigators and radiation protectors” (Dana-Farber Cancer Institute, Inc., priority 2011, dated 2018).
Marks after values point to notes of the source that are not given here.

What was measured:
[1] = test system: BALB/c mice after 7 Gy TBI; experiment: In vivo radiation mitigation: survival after 7 Gy TBI; set-up: species or system mouse; conditions: 7 Gy TBI (LD95/30), treatment initiated 24 hours after irradiation; Mantel-Cox log-rank
Protocol: (§1) Male BALB/c mice (Stock #028, Charles River, Wilmington, Mass.) were acclimated prior to irradiation at age 12 weeks. Studies were conducted in accordance with Dana-Farber Cancer Institute's ACUC-approved policies and protocols. Mice were placed into a Rad Disk™ rodent microisolation irradiation cage (Braintree Scientific, Braintree, Mass.) and administered a single 7 Gy dose by a Gammacell® 40Exactor (Best Theratronics, Ottawa, Ontario) cesium source irradiator. […]
For the human HSCT study, samples with undetectable analytes were assigned a value at half the lower limit of detection. For ANC, PLT, BPI, TLR4 and IL-6, data were analyzed after logarithmic transformation, as this yielded distributions that were more approximately normal. […] Comparisons between subjects with or without fever were evaluated using the Mann-Whitney test. When assessing correlations between different parameters, within-subject correlations were calculated using the Spearman correlation coefficient and data from multiple time-points. The calculated coefficients were averaged over the different subjects and significance tested with the signed rank test. […] Two tailed t tests (Mann-Whitney) are performed throughout except for citrulline data in which the data were analyzed by 1-sample t test as compared to theoretical mean of 100% and for hematologic analyses (Table 1) in which unpaired t tests were performed. […]

[2] = test system: BALB/c mice after 7 Gy TBI; experiment: Peripheral blood counts after TBI (CBC, Hemavet); format: in vivo, mouse; conditions: median; for WBC: treatment started 24 h after irradiation
Protocol: Male BALB/c mice (Stock #028, Charles River, Wilmington, Mass.) were acclimated prior to irradiation at age 12 weeks. Studies were conducted in accordance with Dana-Farber Cancer Institute's ACUC-approved policies and protocols. Mice were placed into a Rad Disk™ rodent microisolation irradiation cage (Braintree Scientific, Braintree, Mass.) and administered a single 7 Gy dose by a Gammacell® 40Exactor (Best Theratronics, Ottawa, Ontario) cesium source irradiator. […] Moribund mice were euthanized via CO, asphyxiation. At scheduled time points, mice were sacrificed humanely via isoflurane anesthetic overdose (IsoFlo®-Abbott Labs, Abbott Park, Ill.).
CBCs were performed on a Hemavet 950 FS hematology analyzer (Drew Scientific, Waterbury, Conn.) with EDTA-anticoagulated (Becton-Dickinson, Franklin Lakes, N.J.) cardiac blood. Plasma was obtained by mixing blood with pyrogen-free heparin (APP Pharmaceutical, Schaumburg, Ill.), in pyrogen-free Eppendorf tubes (USA Scientific) and centrifugation at 14,000 rpm for 10 minutes. Single use aliquots were stored at −80° C. In some studies, femurs and tibiae from one leg/animal were dissected, fixed for 24 hours in 10% neutral buffered formalin (Fisher Scientific, Pittsburgh, Pa.), and processed, including coronal sectioning and hematoxylin and eosin (H&E) staining (Specialized Histopathology Services-Longwood, Boston, Mass.). […] Red blood cells were lysed with hypotonic lysing buffer (Sigma).

[3] = test system: BM of BALB/c mice after 7 Gy TBI; experiment: Femoral BM cellularity by histopathology; format: in vivo, mouse; conditions: D19 after 7 Gy
Protocol: as §1
A Board-certified hematopathologist (JK) assessed femoral BM cellularity on decalcified, formalin fixed, H&E stained paraffin-fixed sections using an Olympus BX51 microscope and an Olympus DP71 camera with DP Capture software. For each animal, 2 slides with 2 fields/slide were scored for the percent of BM space occupied by hematopoietic cells. […]

CCN1CCN(c2cc3c(cc2F)c(=O)c(C(=O)O)cn3C2CC2)CC1 [ENR, enrofloxacin]
D30 survival [1]: some survival benefit
WBC ([2]; D15 after 7 Gy TBI): 0.24 ▴ K/μL
Hb ([2]; D15 after 7 Gy TBI): 8.80 ▴ ▪ g/dL
Monocytes ([2]; D15 after 7 Gy TBI): 0 ▴ ● K/μL
Neutrophils ([2]; D15 after 7 Gy TBI): 0 ▴ ● K/μL
PLT ([2]; D15 after 7 Gy TBI): 196 ▴ K/μL
WBC ([2]; D19 after 7 Gy TBI): 0.21 ▴ K/μL
Hb ([2]; D19 after 7 Gy TBI): 8.35 ▴ ▪ g/dL
Monocytes ([2]; D19 after 7 Gy TBI): 0 ▴ ● ▪ K/μL
Neutrophils ([2]; D19 after 7 Gy TBI): 0 ▴ ● ▪ K/μL
PLT ([2]; D19 after 7 Gy TBI): 250.5 ▴ K/μL
WBC ([2]; D30 after 7 Gy TBI): 1.84 ▴ ● K/μL
Hb ([2]; D30 after 7 Gy TBI): 13.1 ▴ g/dL
Monocytes ([2]; D30 after 7 Gy TBI): 0.14 ● K/μL
Neutrophils ([2]; D30 after 7 Gy TBI): 0.55 ● K/μL
PLT ([2]; D30 after 7 Gy TBI): 713.5 ▴ K/μL
BM cellularity [3]: < 5%
